The numbers were not newly measured in patent US20170239214A1, “COMPOSITION FOR PREVENTING OR TREATING OBESITY CONTAINING ALPHA-LIPOIC ACID AND N-ACETYLCYSTEINE AS ACTIVE INGREDIENTS” (The Asan Foundation, priority 2015, published 2017), which cites them from elsewhere.

For data set [1] the following is noted: mice.
For data set [2] the following is noted: rats.

For the molecule `O=C(O)CCCCC1CCSS1` (stereo not drawn) [α-lipoic acid], the appetite suppressant effect entry in data set [1] is listed as “pronounced appetite suppressant effect”.
Take `CC(=O)N[C@@H](CS)C(=O)O` [N-acetylcysteine]: in data set [2], the improving insulin resistance result was “improving insulin resistance” and the “inhibiting a weight gain” value is listed as “significant effects of inhibiting a weight gain”.
